Assay results reported in PubChem BioAssay (NCI).
Values joined by “and” are separate entries in the source; they are usually repeats but may differ in a detail not shown here. Equal entries are not always repeated.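 The compound was tested at five concentrations on cells cultured in 96-well plates, with a 48-hour exposure period. GI50: concentration for 50% inhibition of growth. TGI: concentration producing complete growth inhibition.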

Legend:
Experiment in all cases: NCI tumour cell line growth inhibition, 48 h
HCT-15 colon = test system: HCT-15 colon
LXFL 529 NSCLC = test system: LXFL 529 NSCLC
SF-268 CNS = test system: SF-268 CNS
SK-MEL-5 melanoma = test system: SK-MEL-5 melanoma
SNB-75 CNS = test system: SNB-75 CNS
SNB-78 CNS = test system: SNB-78 CNS
TK-10 renal = test system: TK-10 renal
BT-549 breast = test system: BT-549 breast
HS 578T breast = test system: HS 578T breast
MDA-MB-435 = test system: MDA-MB-435

| Structure (SMILES) | TGI (HCT-15 colon) [µM] | TGI (LXFL 529 NSCLC) [µM] | TGI (SF-268 CNS) [µM] | TGI (SK-MEL-5 melanoma) [µM] | TGI (SNB-75 CNS) [µM] | TGI (SNB-78 CNS) [µM] | TGI (TK-10 renal) [µM] | TGI (BT-549 breast) [µM] | TGI (HS 578T breast) | TGI (MDA-MB-435) [µM] | GI50 (BT-549 breast) [µM] | GI50 (HCT-15 colon) [µM] | GI50 (HS 578T breast) [µM] | GI50 (MDA-MB-435) [µM] | GI50 (SF-268 CNS) [µM] | GI50 (SK-MEL-5 melanoma) [µM] | GI50 (SNB-75 CNS) [µM] | GI50 (TK-10 renal) [µM] |
| --- | --- | --- | --- | --- | --- | --- | --- | --- | --- | --- | --- | --- | --- | --- | --- | --- | --- | --- |
| O=C(O)/C=C/C(=O)N1C/C(=C\c2ccccc2)C(=O)/C(=C/c2ccccc2)C1 | 20.6 | 3.72 | 16.8 | 19 | 20.6 | 24.2 | 22.8 | – | – | – | – | – | – | – | – | – | – | – |
| CC12Oc3ccc4ccccc4c3CC1Cc1c(ccc3ccccc13)O2 (stereo not drawn) | – | > 100 | > 100 | – | 41.3 | – | > 100 | – | – | – | – | – | – | – | – | – | – | – |
| O=C(O)CCSC(=O)Nc1ccc(N=Nc2ccccc2)cc1 | > 100 | > 100 | > 100 | > 100 | > 100 | > 100 | > 100 | – | – | – | – | – | – | – | – | – | – | – |
| CN(C)C(=S)/N=c1\ss/c(=N\S(=O)(=O)c2ccccc2)n1N(C)C | > 100 | > 100 | > 100 | > 100 | > 100 | > 100 | > 100 | – | – | – | – | – | – | – | – | – | – | – |
| c1ccc2c(c1)C1=NCCN1c1ccccc1-2 | 12.2 | 13 | 11 | 6.08 | 14.4 | 18 | 12 | – | – | – | – | – | – | – | – | – | – | – |
| CCC(Oc1ccc(OC)c2ccccc(=O)c12)C(=O)O (stereo not drawn) | > 100 | > 100 | > 100 | > 100 | > 100 | > 100 | > 100 | – | – | – | – | – | – | – | – | – | – | – |
| O=C(NS(=O)(=O)c1ccccc1)C(Cc1ccccc1)C(Cc1ccccc1)C(=O)NS(=O)(=O)c1ccccc1 (stereo not drawn) | – | > 100 | > 100 | > 100 | > 100 | – | > 100 | – | – | – | – | – | – | – | – | – | – | – |
| CN1CC(=O)N(C)c2nc[nH]c2C1=O | > 100 | > 100 | > 100 | > 100 | > 100 | > 100 | > 100 | – | – | – | – | – | – | – | – | – | – | – |
| COC(=O)CCC(=O)NC1C2CC3CC(C2)CC1C3 (stereo not drawn) | > 100 | > 100 | > 100 | > 100 | > 95.4 | – | > 100 | – | – | – | – | – | – | – | – | – | – | – |
| COC1=C2CC(C)CC(OC)C(O)C(C)/C=C(\C)C(OC(N)=O)C(OC)/C=C\C=C(/C)C(=O)NC(=C(/C=N/N3CCCCC3)C1=O)C2=O (stereo not drawn) | 28.6 | 24.1 | 25.1 | 29.9 | 41 | 48.3 | 72.1 | – | – | – | – | – | – | – | – | – | – | – |
| Cc1cccc2nc3cccc(C(=O)NCCN(C)C)c3nc12 | 2.19 | – | 9.2 | 1.97 | 3.04 | 12 | 5.84 | – | – | – | – | – | – | – | – | – | – | – |
| Cc1ccccc1-n1c(C)nc(-c2ccccc2)cc1=O | > 100 | > 100 | > 100 | > 100 | > 100 | > 100 | > 100 | – | – | – | – | – | – | – | – | – | – | – |
| O=C1C=CC(CC(=O)c2ccc3ccccc3c2)O1 (stereo not drawn) | 50.4 | 32.3 | 39.9 | > 100 | 91.2 | > 100 | 69.8 | – | – | – | – | – | – | – | – | – | – | – |
| C[C@H]1C(=O)CC[C@]2(C)CCC(C(C)(C)O)CC12O (stereo partly drawn) | > 100 | > 100 | > 100 | > 100 | > 100 | > 100 | > 100 | – | – | – | – | – | – | – | – | – | – | – |
| CCOC(=O)c1c(C)c(C)n2c1NC(=O)C2 | > 100 | > 100 | > 100 | > 100 | > 74.7 | – | > 89.4 | > 100 | 70 µM | > 100 | – | – | – | – | – | – | – | – |
| O=S(=O)(C/C(=N\O)c1ccccc1)c1ccccc1 | > 100 | > 100 | > 100 | > 100 | > 100 | > 100 | > 100 | – | – | – | – | – | – | – | – | – | – | – |
| CCCCCCC(/C=N/O)C(C)(O)CCC (stereo not drawn) | > 100 | > 100 | > 100 | > 100 | > 100 | > 100 | > 100 | – | – | – | – | – | – | – | – | – | – | – |

| Structure (SMILES) | TGI (HCT-15 colon) [µM] | TGI (LXFL 529 NSCLC) [µM] | TGI (SF-268 CNS) [µM] | TGI (SK-MEL-5 melanoma) [µM] | TGI (SNB-75 CNS) [µM] | TGI (SNB-78 CNS) [µM] | TGI (TK-10 renal) [µM] | TGI (BT-549 breast) [µM] | TGI (HS 578T breast) | TGI (MDA-MB-435) [µM] | GI50 (BT-549 breast) [µM] | GI50 (HCT-15 colon) [µM] | GI50 (HS 578T breast) [µM] | GI50 (MDA-MB-435) [µM] | GI50 (SF-268 CNS) [µM] | GI50 (SK-MEL-5 melanoma) [µM] | GI50 (SNB-75 CNS) [µM] | GI50 (TK-10 renal) [µM] |
| --- | --- | --- | --- | --- | --- | --- | --- | --- | --- | --- | --- | --- | --- | --- | --- | --- | --- | --- |
| Nn1c(N=Nc2c(O)[nH]c3c(Cl)cc(Cl)cc23)n[nH]c1=S | > 100 | > 100 | > 100 | > 100 | – | > 100 | > 100 | – | – | – | – | – | – | – | – | – | – | – |
| C/C=C(\C)C(=O)N[C@H]1C(O)C[C@]2(C)C3CC[C@@]4(C)C(CC[C@@H]4C(C)N(C)C)C3CCC2C1O (stereo partly drawn) | 5.01 | – | 8.94 | 3.46 | 26.6 | – | 41.5 | 51.9 | 29.6 µM | 5.85 | 16.9 | 1.71 | 6.56 | 2.54 | 2.8 | 1.65 | 10.7 | 18.1 |
| CCN(CC)CCSCCCNc1c2ccc(Cl)cc2nc2ccc(OC)cc12 | 2.36 | – | 3.01 | 3.24 | 2.72 | – | 3.87 | 3.5 | 5.28 µM | 2.89 | 1.77 | 0.433 | 2.12 | 1.46 | 1.06 | 1.8 | 1.28 | 1.55 |
| CCN(CC)CCOc1ccc(C(=O)/C=C\c2ccc(Cl)cc2Cl)cc1 | 5.16 | – | 23.7 | 12.3 | 12.1 | – | 29.2 | 18.2 | 32 µM | 7.36 | 5.83 | 2.15 | 9.47 | 2.56 | 8.41 | 3.14 | 2.53 | 15.6 |
| Cn1c(=O)c(Oc2ccc(F)cc2F)cc2cnc(NCCS(C)(=O)=O)nc21 | > 25 | – | > 25 | > 25 | > 25 | – | > 25 | > 25 | > 25 µM | > 25 | > 25 | > 25 | > 25 | > 25 | > 25 | > 25 | > 25 | > 25 |
| COC(=O)C1=CC2OC1(C)CCC2=O (stereo not drawn) | > 100 | > 100 | > 100 | – | > 100 | – | > 100 | – | – | – | – | – | – | – | – | – | – | – |
| O=C(Nc1ccc(I)cc1F)c1cc(Cl)ccc1O | 10.7 | – | 7.06 | 0.596 | 2.36 | – | 16.3 | 1.73 | 3.19 µM | 4.9 | 0.372 | 0.554 | 0.325 | 0.583 | 0.507 | 0.234 | 0.308 | 1.13 |
| COC(=O)[C@@H](C)C[C@H](Cc1ccccc1)NC(=O)c1csc([C@@H](C[C@H](C(C)C)N(C)C(=O)[C@H](C)NC(=O)[C@H]2CCCCN2C)OC(C)=O)n1 | > 25 | – | > 25 | > 25 | 1.71 | – | > 25 | 17.5 | > 25 µM | 0.522 | 0.979 | 3.37 | 1.39 | 0.121 | 1.65 | 0.86 | 0.47 | > 25 |
| O=C1OC(c2ccccc2)=N/C1=C\c1cccc(F)c1 | > 100 | – | > 100 | > 100 | > 100 | – | > 100 | > 100 | > 100 µM | > 100 | – | – | – | – | – | – | – | – |
| O=C1OC(CN2CCOCC2)CN1/N=C/c1ccc([N+](=O)[O-])o1 (stereo not drawn) | 39.2 | – | > 100 | 63 | > 100 | – | > 100 | > 100 | > 100 µM | 33.3 | – | – | – | – | – | – | – | – |
| CC(=O)Oc1ccc(C(c2ccc(OC(C)=O)cc2)c2ccccn2)cc1 | > 100 | > 100 | > 100 | > 100 | > 100 | – | > 100 | – | 0.677 µM and 0.638 µM | > 100 | 0.313 | 31.8 | – | 53.2 | > 87.9 | 31.8 | 24.8 | > 59.7 |
| COc1ccc2c(c1OC)C(=O)c1cnccc1C2=O | > 100 | > 100 | – | > 100 | > 100 | > 100 | > 100 | – | – | – | – | – | – | – | – | – | – | – |
| O=C(CC1C(=O)Nc2ccccc2S1=O)Nc1ccc(Cl)cc1 (stereo not drawn) | > 100 | > 100 | > 100 | – | > 100 | > 100 | > 100 | – | – | – | – | – | – | – | – | – | – | – |
| COc1ccc(OC)c(Nc2nc(-c3c(C)nc4sccn34)cs2)c1 | > 100 | – | > 100 | > 100 | 33.7 | – | > 100 | > 100 | > 100 µM | > 100 | 11 | > 100 | 5.3 | > 100 | 29.7 | 34.9 | 3.38 | 87.5 |
| O=C1C2Nc3ccccc3SC2C(=O)N1c1ccccc1C(F)(F)F (stereo not drawn) | 65.5 | > 100 | > 100 | > 100 | – | 53.6 | > 100 | – | – | – | – | – | – | – | – | – | – | – |
| O=C1NCCS(=O)(=O)/C1=C\C=C\c1cccc(C(F)(F)F)c1 | 5.29 | – | 15 | 3.36 | 20.1 | – | 13 | 8.54 | 30.7 µM | 6.47 | 2.4 | 1.56 | 6.81 | 1.81 | 3.28 | 1.71 | 4.36 | 3.95 |
| Cc1cccc2c(N)c3ccccc3nc12 | 10.4 | – | 9.22 | 3.26 | 4.14 | – | 8.27 | 12.9 | 17.4 µM | 4.54 | 3.23 | 0.67 | 3.44 | 1.67 | 1.5 | 1.77 | 1.47 | 1.78 |
